Results reported in patent US7638122B2, “Stat3 antagonists and their use as vaccines against cancer” (University of South Florida, priority 2003, dated 2009).
Square brackets hold non-standard residues; d marks the D form. Ends that are not written are not given here. pY = N[C@@H](Cc1ccc(OP(=O)(O)O)cc1)C(=O)O

System: bone marrow progenitor cells
Assay: DC differentiation/maturation from bone marrow progenitor cells in the presence of tumor supernatants
Assay type: cell-based, mouse
Settings: supernatant from CT26 tumor cells (5%), 375 μM peptide, 6 days
Protocol: FIG. 7. Inhibition of Stat activity in dendritic cells alleviates the negative effect of tumor-secreted factors on DC differentiation. a, Stat activation in DCs treated for 1 hour with recombinant VEGF (100 ng/ml) or incubated for 15 min. with various supernatants as indicated. […] Bone marrow progenitor cells were cultured for 6 days in DC medium alone or in the presence of supernatant from CT26 tumor cells (5%) plus 375 μM of anti-Stat3 (PY*LKTK) (SEQ ID NO: 11); or control (PYLKTK) (SEQ ID NO: 12); peptide.
Preparation of bone marrow progenitor cells (BMPCs) and generation of bone marrow-derived mature DCs were carried out according to a previously described protocol (Lu et al., 2000, J. Exp. Med. 191: 541-550). Relatively mature DCs were obtained by incubating, BMPCs in medium containing GM-CSF and IL-4 for 6 days. […] Following 48 hours culture, suspension cells were collected and analyzed for IL-12 secretion by ELISA (R & D) and expression of DC-surface markers (CD86, CD40 and MHC Class II) by flow cytometry. All antibodies were purchased from PharMingen and surface expression was analyzed using a FACScan cytofluorometer (Becton Dickinson) as previously described, (Lu et al., 2000, supra). […] T-cell proliferation was measured by [^3H]-thymidine incorporation over 18 hours.

## PY*LKTK (P[pY]LKTK)
  effect of tumor-derived factors on DC differentiation: relieve the negative effect of tumor-derived factors on DC differentiation
